Measured values taken from patent US5726159A, “Antithrombotic agents” (Eli Lilly and Company, priority 1995, dated 1998).
Where a name gives a salt, the structure may show the parent alone.

Legend:
[1] = target: human thrombin (Homo sapiens, UniProt P00734); assay: Inhibition of thrombin amidase activity (Kass), chromogenic substrate; type: biochemical; conditions: association constant, mean over concentrations
[2] = system: Human plasma; assay: Human plasma anticoagulation, thrombin time (TT); type: biochemical; conditions: concentration required to double the clotting time
Method in brief: (§1)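 In plasma from human donors, spiked with a range of compound levels, an automated coagulometer recorded clot formation after thromboplastin (PT), Actin then calcium (APTT) or 10 NIH units/mL thrombin (TT); doubling concentrations were extrapolated linearly.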

[3] = target: T1, Bovine trypsin (Bos taurus, UniProt P00760); assay: Kass for trypsin, chromogenic substrate; type: biochemical
T1 construct: Bovine trypsin is purchased from Worthington Biochemicals, Freehold, N.J; purchased Worthington Biochemicals, Freehold, N.J
T1 sequence (P00760 24-246): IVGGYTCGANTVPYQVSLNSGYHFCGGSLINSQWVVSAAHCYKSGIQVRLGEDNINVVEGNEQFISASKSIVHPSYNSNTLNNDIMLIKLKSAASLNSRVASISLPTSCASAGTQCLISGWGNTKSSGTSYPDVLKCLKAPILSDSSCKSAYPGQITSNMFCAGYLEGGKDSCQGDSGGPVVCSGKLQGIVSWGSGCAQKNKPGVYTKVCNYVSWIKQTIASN
Experimental: (§2) By substantially following the procedures described above for human thrombin, and using other human blood coagulation system serine proteases and proteases of the fibrinolytic system with the appropriate chromogenic substrates, identified below, selectivity of the compounds of the present invention with respect to the coagulation factor serine proteases and with respect to the fibrinolytic system serine proteases are evaluated as well as their substantial lack of interference with serine proteases of the fibrinolytic system. […] This would be important to the therapeutic use of such agents as an adjunct to streptokinase, t-PA or urokinase thrombolytic therapy and to the use of such agents as an endogenous fibrinolysis-sparing (with respect to t-PA and urokinase) antithrombotic agent. In addition to the lack of interference with the amidase activity of the fibrinolytic proteases, such fibrinolytic system sparing can be studied by the use of human plasma clots and their lysis by the respective fibrinolytic plasminogen activators.
(§3) Chromogenic substrates: N-Benzoyl-Ile-Glu-Gly-Arg-p-nitroanilide (for factor Xa); N-Cbz-D-Arg-Gly-Arg-p-nitroanilide (for factor IXa assay as the factor Xa substrate); Pyroglutamyl-Pro-Arg-p-nitroanilide (for Factor XIa and for aPC); H-D-Pro-Phe-Arg-p-nitroanilide (for factor XIIa); and Pyroglutamyl-Gly-Arg-p-nitroanilide (for urokinase); are purchased from KabiVitrnm, Stockholm, Sweden, or from Midwest Biotech, Fishers, Ind. Bovine trypsin is purchased from Worthington Biochemicals, Freehold, N.J., and human plasma kallikrein from Kabi Vitrum, Stockholm, Sweden. Chromogenic substrate H-D-Pro-Phe-Arg-p-nitroanilide for plasma kallikrein is purchased from Kabi Vitrum, Stockholm, Sweden. N-Benzoyl-Phe-Val-Arg-p-nitroanilide, the substrate for human thrombin and for trypsin, is synthesized according to procedures described above for the compounds of the present invention, using known methods of peptide coupling from commercially available reactants or purchased from Midwest Biotech, Fishers, Ind.

[4] = system: Human plasma; assay: Human plasma anticoagulation, activated partial thromboplastin time (APTT); type: biochemical; conditions: concentration required to double the clotting time
Method in brief: as §1

[5] = target: T2, t-PA (Homo sapiens, UniProt P00750); assay: Kass for t-PA, chromogenic substrate; type: biochemical
T2 construct: purchased American Diagnostica, Greenwich, Conn
Experimental: as §2

[6] = target: T3, Human plasmin (Homo sapiens, UniProt P00747); assay: Kass for plasmin, chromogenic substrate; type: biochemical
T3 construct: Human plasmin is purchased from Boehringer Mannheim, Indianapolis, Ind; purchased Boehringer Mannheim, Indianapolis, Ind
Experimental: as §2

[7] = system: Human plasma; assay: Human plasma anticoagulation, prothrombin time (PT); type: biochemical; conditions: concentration required to double the clotting time
Method in brief: as §1

[8] = target: factor Xa (Homo sapiens, UniProt P00742); assay: Kass for factor Xa, chromogenic substrate; type: biochemical
Experimental: as §2, §3

[9] = system: thrombin; conditions: Bajusz et al., J. Med. Chem. 1990; cited from earlier work
[10] = Index of bioavailability (% relative activity from plasma TT, oral vs i.v.); type: in vivo; conditions: dose-adjusted AUC of plasma TT, p.o. vs i.v.
Experimental: Parke Davis) at 37° C. […] Assays are done in duplicate and averaged. […] Each sample population represented alternating sequential time points.

[11] = Simoons et al., Circulation 1994; cited from earlier work

Sequence of factor Xa (P00742 235-488 limits assumed): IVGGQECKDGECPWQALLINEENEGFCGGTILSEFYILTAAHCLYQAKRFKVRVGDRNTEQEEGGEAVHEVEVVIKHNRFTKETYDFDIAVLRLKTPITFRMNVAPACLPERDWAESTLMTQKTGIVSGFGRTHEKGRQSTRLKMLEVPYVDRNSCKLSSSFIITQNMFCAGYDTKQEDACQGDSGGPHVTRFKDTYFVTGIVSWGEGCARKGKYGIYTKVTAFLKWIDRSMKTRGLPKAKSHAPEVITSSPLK
Sequence of factor Xa (P00742 41-179 partner limits assumed): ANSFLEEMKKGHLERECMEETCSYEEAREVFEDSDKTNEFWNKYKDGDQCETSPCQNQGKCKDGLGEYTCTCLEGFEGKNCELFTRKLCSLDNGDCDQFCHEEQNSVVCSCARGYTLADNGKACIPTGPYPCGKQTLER
T2 sequence (P00750 36-562): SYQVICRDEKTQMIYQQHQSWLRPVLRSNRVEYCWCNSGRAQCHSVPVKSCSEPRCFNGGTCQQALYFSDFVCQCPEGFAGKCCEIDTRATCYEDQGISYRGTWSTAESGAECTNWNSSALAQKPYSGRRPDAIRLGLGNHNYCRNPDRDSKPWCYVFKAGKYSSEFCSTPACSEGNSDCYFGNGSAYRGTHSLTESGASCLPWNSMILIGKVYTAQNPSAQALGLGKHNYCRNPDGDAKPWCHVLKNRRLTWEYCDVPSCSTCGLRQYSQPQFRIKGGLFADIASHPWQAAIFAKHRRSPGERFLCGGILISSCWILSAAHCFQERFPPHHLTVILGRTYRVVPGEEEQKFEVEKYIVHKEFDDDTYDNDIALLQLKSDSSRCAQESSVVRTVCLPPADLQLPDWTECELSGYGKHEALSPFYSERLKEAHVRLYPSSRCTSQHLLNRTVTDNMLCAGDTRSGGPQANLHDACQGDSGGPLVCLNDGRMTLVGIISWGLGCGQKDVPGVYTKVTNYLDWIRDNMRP
T3 sequence (P00747 581-810 limits assumed): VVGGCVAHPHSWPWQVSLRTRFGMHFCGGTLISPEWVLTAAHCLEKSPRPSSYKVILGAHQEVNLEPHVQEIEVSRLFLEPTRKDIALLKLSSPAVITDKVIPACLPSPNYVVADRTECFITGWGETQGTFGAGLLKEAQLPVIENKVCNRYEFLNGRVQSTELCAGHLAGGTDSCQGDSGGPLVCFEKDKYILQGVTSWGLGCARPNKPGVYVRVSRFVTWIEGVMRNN
T3 sequence (P00747 97-580 partner limits assumed): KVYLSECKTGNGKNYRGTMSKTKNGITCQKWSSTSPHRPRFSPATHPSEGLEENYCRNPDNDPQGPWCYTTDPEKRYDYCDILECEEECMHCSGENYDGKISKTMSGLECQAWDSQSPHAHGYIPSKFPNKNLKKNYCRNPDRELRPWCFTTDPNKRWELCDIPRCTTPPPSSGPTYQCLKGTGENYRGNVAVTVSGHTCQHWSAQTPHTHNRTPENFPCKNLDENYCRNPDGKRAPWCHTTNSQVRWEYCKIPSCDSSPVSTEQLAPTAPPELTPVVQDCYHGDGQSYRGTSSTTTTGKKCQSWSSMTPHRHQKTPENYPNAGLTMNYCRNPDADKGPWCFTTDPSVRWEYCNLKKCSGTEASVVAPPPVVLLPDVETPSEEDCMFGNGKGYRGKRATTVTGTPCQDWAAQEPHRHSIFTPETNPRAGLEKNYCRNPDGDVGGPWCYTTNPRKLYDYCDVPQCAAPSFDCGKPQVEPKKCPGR

| Compound | Kass Human Thrombin [1] | 2x Clotting time TT [2] | Kass Trypsin [3] | 2x Clotting time APTT [4] | Kass t-PA [5] | Kass Plasmin [6] | 2x Clotting time PT [7] | Kass Xa [8] | direct inhibition of thrombin [9] | % oral/i.v. activity (Rat) [10] [%] | anticoagulant activity in man [11] |
| --- | --- | --- | --- | --- | --- | --- | --- | --- | --- | --- | --- |
| NMI-D-Phe-Pro-Agm.HCl [Example 4] | 13. × 10^6 (L/mole) | 230 ng/mL |  |  |  |  |  |  |  |  |  |
| HO2 CCH2 -D-Cha-Pro-4-NHCH2 -2-amidinothiophene.HCl [Example 65] | 4,500 × 10^6 (L/mole) | 1 ng/mL | 570. × 10^6 (L/mole) | 48 ng/mL |  |  |  |  |  |  |  |
| D-hPro-N(PhCH2 CH2)Gly-p-NHCH2 -C6 H4 C(NH)NH2.2HCl [Example 21] | 3.6 × 10^6 (L/mole) | 160 ng/mL | 0.96 × 10^6 (L/mole) | 2,000 ng/mL | 0.002 × 10^6 (L/mole) | 0.031 × 10^6 (L/mole) | 1,000 ng/mL | 0.62 × 10^6 (L/mole) |  |  |  |
| CC(C)(C)OC(=O)N[C@H](Cc1ccccc1)C(=O)N1CCC[C@H]1C(=O)N[C@H](C=O)CCCNC(=N)N [Boc-D-Phe-Pro-Arg-H] |  |  |  |  |  |  |  |  | potent direct inhibition of thrombin |  |  |
| N=C(N)NCCC[C@@H](C=O)NC(=O)[C@@H]1CCCN1C(=O)[C@H](N)Cc1ccccc1 [D-Phe-Pro-Arg-H] |  |  |  |  |  |  |  |  | potent direct inhibition of thrombin |  |  |
| HOOCCH2 -D-Phe-Pro-p-NHCH2 C6 H4 C(NH)NH2.HCl [Example 46] |  | 2. ng/mL | 48. | 67 ng/mL | 0.01 |  | 77 ng/mL |  |  |  |  |
| N=C(N)c1ccc(CNC(=O)[C@@H]2CCCN2C(=O)[C@H](N)CC2CCCCC2)cc1 [Example 51, D-Cha-Pro-p-NHCH2 C6 H4 C(NH)NH2.2HCl] |  | 2 ng/mL | 27. × 10^6 (L/mole) | 48 ng/mL | 0.01 × 10^6 (L/mole) |  | 110 ng/mL |  |  |  |  |
| CCS(=O)(=O)N[C@H](Cc1ccccc1)C(=O)N1CCC[C@H]1C(=O)NCCc1ccc(C(=N)N)cc1 [Example 26, EtSO2 -D-Phe-Pro-p-NHCH2 CH2 -C6 H4 C(=NH)NH2.HCl] | 13. × 10^6 (L/mole) | 37 ng/mL |  | 870 ng/mL | 0.01 × 10^6 (L/mole) |  | 750 ng/mL |  |  |  |  |
| CCS(=O)(=O)N[C@H](Cc1ccccc1)C(=O)N1CCC[C@H]1C(=O)NCCCCNC(=N)N [Example 1, EtSO2 -D-Phe-Pro-Agm.HCl] |  | 250 ng/mL |  |  | 0.082 |  |  |  |  | 8 |  |
| N=C(N)c1ccc(CNC(=O)[C@@H]2CCCN2C(=O)[C@@H](CC2CCCCC2)NCCC(=O)O)cc1 [Example 52, HOOCCH2 CH2 -D-Cha-Pro-p-NHCH2 C6 H4 C(NH)NH2.HCl] |  | 6 ng/mL | 47. × 10^6 (L/mole) | 80 ng/mL | 0.01 × 10^6 (L/mole) |  | 170 ng/mL |  |  |  |  |
| N=C(N)c1ccc(CNC(=O)[C@@H]2C[C@@H]3CCCC[C@@H]3N2C(=O)[C@@H]2NCC[C@@H]3CCCC[C@@H]32)cc1 (relative stereo) [Example 42, D-1-Piq-cis-Ohi-p-NHCH2 C6 H4 C(NH)NH2.2HCl] | 38. × 10^6 (L/mole) | 20 ng/mL | 43. × 10^6 (L/mole) | 270 ng/mL | 0.01 × 10^6 (L/mole) |  | 320 ng/mL |  |  |  |  |
| CN[C@H](Cc1ccccc1)C(=O)N1CCC[C@H]1C(=O)N[C@H](C=O)CCCNC(=N)N.O=S(=O)(O)O [D-MePhe-Pro-Arg-H sulfate] |  |  |  |  |  |  |  |  |  |  | anticoagulant in man |
| CCS(=O)(=O)N[C@H](Cc1ccccc1)C(=O)N1CCC[C@H]1C(=O)NCCc1cccc(NC(=N)N)c1 [Example 37, EtSO2 -D-Phe-Pro-m-NHCH2 CH2 C6 H4 NHC(NH)NH2.HCl] |  | > 9,000 ng/mL |  | > 9,000 ng/mL |  |  | > 9,000 ng/mL | < 0.009 × 10^6 (L/mole) |  |  |  |
| D-hPro-Pro(4-cis-PhO)-p-NHCH2 -C6 H4 C(NH)NH2.2HCl [Example 22] | 3.0 × 10^6 (L/mole) | 170 ng/mL | 8.5 × 10^6 (L/mole) | 2,300 ng/mL | 0.004 × 10^6 (L/mole) | 0.042 × 10^6 (L/mole) | 1,000 ng/mL | 0.043 × 10^6 (L/mole) |  |  |  |
| CN[C@H](Cc1ccccc1)C(=O)N1CCC[C@H]1C(=O)N[C@H](C=O)CCCNC(=N)N [D-MePhe-Pro-Arg-H] |  |  |  |  |  |  |  |  | potent direct inhibition of thrombin |  |  |
| EtSO2 -Phg-cis-Ohi-p-NHCH2 C6 H4 C(NH)NH2.HCl [Example 44] |  | 4. ng/mL |  | 100 ng/mL | 0.04 | 1.8 | 170 ng/mL | 0.66 |  |  |  |
| EtSO2 -D-Phe-Pro-p-NHCH2 -C6 H4 C(=NH)NH2.HCl [Example 23] | 770 × 10^6 (L/mole) | 7 ng/mL | 21 × 10^6 (L/mole) | 86 ng/mL | 0.31 × 10^6 (L/mole) | 0.44 × 10^6 (L/mole) | 120 ng/mL | 0.14 × 10^6 (L/mole) |  |  |  |
